This is an account of results in US10577363B2, “Substituted piperidine compounds” (EPIZYME, INC., priority 2014, dated 2020).

In test [1] the target is T1, SMYD3 (Homo sapiens (Human), UniProt Q9H7B4). In words: SMYD3 biochemical assay (SPA, 3H-SAM methylation of MEKK2 protein substrate). The settings on record: read-out: SMYD3 Biochem IC50*. In a few lines: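 Full-length native human SMYD3 (E. coli-expressed, tags removed) preincubated with compounds 30 min at room temperature, then reaction started with 3H-SAM and GST-tagged MEKK2 protein in 25 mM Tris-Cl pH 8.0, 1 mM TCEP, 0.005% BSG, 0.005% Tween 20. Quenched with unlabelled SAM (100 uM final); 3H-MEKK2 counted by SPA.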
T1 sequence (Q9H7B4 whole entry): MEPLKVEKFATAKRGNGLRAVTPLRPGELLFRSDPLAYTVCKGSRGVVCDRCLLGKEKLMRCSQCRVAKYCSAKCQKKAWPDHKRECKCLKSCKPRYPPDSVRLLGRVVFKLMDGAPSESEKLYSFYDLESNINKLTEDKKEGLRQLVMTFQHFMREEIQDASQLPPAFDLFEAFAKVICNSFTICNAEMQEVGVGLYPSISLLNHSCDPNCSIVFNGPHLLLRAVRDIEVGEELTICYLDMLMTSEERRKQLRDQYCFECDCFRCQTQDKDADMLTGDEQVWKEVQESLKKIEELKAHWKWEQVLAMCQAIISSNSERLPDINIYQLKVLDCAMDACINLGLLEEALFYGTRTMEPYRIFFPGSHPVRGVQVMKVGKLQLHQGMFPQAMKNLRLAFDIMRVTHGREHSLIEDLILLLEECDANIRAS

The target of test [2] is T1, SMYD3. In words: SMYD3 cell assay (Trimethyl-MEKK2 In-Cell Western in 293T/17 cells). It is filed as cell-based. As to conditions: read-out: SMYD3 Cell IC50*. In a few lines:
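In-Cell Western ratio of trimethyl-Lys260 MEKK2 to anti-flag signal; percent inhibition from DMSO and maximum-inhibition controls, IC50 by non-linear regression, triplicates.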

One may read the IC50 as the concentration that gives 50% inhibition. Turning to `CC1(N)CCC(S(=O)(=O)N2[C@@H]3CC[C@H]2C[C@@H](NC(=O)c2cc(C4CC4)on2)C3)CC1` (stereo partly drawn) [compound 896, N-((1R,3R,5S)-8-(((1r,4R)-4-amino-4-methylcyclohexyl)sulfonyl)-8-azabicyclo[3.2.1]octan-3-yl)-5-cyclopropylisoxazole-3-carboxamide], the IC50 came to 14 nM in test [1] and 86.6 nM in test [2].
On to `O=C(N[C@H]1C[C@H]2CC[C@@H](C1)N2S(=O)(=O)NC1CCNCC1)c1cc(C2CC2)on1` [compound 897, 5-cyclopropyl-N-((1R,3r,5S)-8-(N-(piperidin-4-yl)sulfamoyl)-8-azabicyclo[3.2.1]octan-3-yl)isoxazole-3-carboxamide], for which the 50% inhibitory concentration (IC50) in test [1] amounted to 14.1 nM; in test [2] it was 423 nM.
As for `C[C@@H](NC1CCN(S(=O)(=O)N2CC[C@H](NC(=O)c3cc(C4CC4)on3)C[C@@H]2C)CC1)c1ccccc1` [compound 898, 5-cyclopropyl-N-((2S,4S)-2-methyl-1-((4-(((R)-1-phenylethyl)amino)piperidin-1-yl)sulfonyl)piperidin-4-yl)isoxazole-3-carboxamide], the IC50 in test [1] was 14.3 nM; in test [2] it was 240 nM.
As to `COCCCN(C)C1CCN(S(=O)(=O)N2[C@@H]3CC[C@H]2C[C@@H](NC(=O)c2cc(C4CC4)on2)C3)CC1` [compound 899, 5-cyclopropyl-N-((1R,3r,5S)-8-((4-((3-methoxypropyl)(methyl)amino)piperidin-1-yl)sulfonyl)-8-azabicyclo[3.2.1]octan-3-yl)isoxazole-3-carboxamide], the IC50 in test [1] is 14.5 nM; in test [2], 168 nM.
On to `CN[C@H]1CC[C@@H](S(=O)(=O)N2CC[C@@H](NC(=O)c3cc(C4CC4)on3)[C@@H](C)C2)CC1` [compound 900, 5-cyclopropyl-N-((3S,4R)-3-methyl-1-(((1s,4R)-4-(methylamino)cyclohexyl)sulfonyl)piperidin-4-yl)isoxazole-3-carboxamide], for which the IC50 in test [1] turned out to be 14.6 nM; in test [2] it was 177 nM.
In the same order, the values of `CC1CNCCN1S(=O)(=O)N1[C@@H]2CC[C@H]1C[C@@H](NC(=O)c1cc(C3CC3)on1)C2` (stereo partly drawn) [compound 901, 5-cyclopropyl-N-((1R,3r,5S)-8-((2-methylpiperazin-1-yl)sulfonyl)-8-azabicyclo[3.2.1]octan-3-yl)isoxazole-3-carboxamide] are 15.1 nM and 97.7 nM.
Consider `CCC1CNCCN1S(=O)(=O)N1[C@@H]2CC[C@H]1C[C@@H](NC(=O)c1cc(C3CC3)on1)C2` (stereo partly drawn) [compound 902, 5-cyclopropyl-N-((1R,3r,5S)-8-((2-ethylpiperazin-1-yl)sulfonyl)-8-azabicyclo[3.2.1]octan-3-yl)isoxazole-3-carboxamide], for which the IC50 in test [1] was 15.2 nM; in test [2], 155 nM.
As to `CC1CC(CS(=O)(=O)N2CC[C@H](NC(=O)c3cc(C4CC4)on3)C[C@@H]2C)CC(C)N1` (stereo partly drawn) [compound 903, 5-cyclopropyl-N-((2S,4S)-1-(((2,6-dimethylpiperidin-4-yl)methyl)sulfonyl)-2-methylpiperidin-4-yl)isoxazole-3-carboxamide], the concentration for half-maximal inhibition (IC50) in test [1] is 16.2 nM; in test [2], 277 nM.
In the same order, the values of `O=C(N[C@H]1C[C@H]2CC[C@@H](C1)N2S(=O)(=O)N1CC2CCC(C1)N2Cc1ccccc1)c1cc(C2CC2)on1` [compound 904, N-((1R,3r,5S)-8-((8-benzyl-3,8-diazabicyclo[3.2.1]octan-3-yl)sulfonyl)-8-azabicyclo[3.2.1]octan-3-yl)-5-cyclopropylisoxazole-3-carboxamide] are 16.9 nM and 395 nM.
For `C[C@H](NC1CCN(S(=O)(=O)N2CC[C@H](NC(=O)c3cc(C4CC4)on3)C[C@@H]2C)CC1)c1ccccc1` [compound 905, 5-cyclopropyl-N-((2S,4S)-2-methyl-1-((4-(((S)-1-phenylethyl)amino)piperidin-1-yl)sulfonyl)piperidin-4-yl)isoxazole-3-carboxamide], in that order: 17.1 nM and 331 nM.
Regarding `O=C(N[C@H]1C[C@H]2CC[C@@H](C1)N2S(=O)(=O)N1CCC(N2CCCC2)CC1)c1cc(C2CC2)on1` [compound 906, 5-cyclopropyl-N-((1R,3r,5S)-8-((4-(pyrrolidin-1-yl)piperidin-1-yl)sulfonyl)-8-azabicyclo[3.2.1]octan-3-yl)isoxazole-3-carboxamide], the values for the half-inhibitory concentration (IC50) in test [1] and in test [2] were 17.1 nM and 229 nM, respectively.
Turning to `CC1CN(S(=O)(=O)N2[C@@H]3CC[C@H]2C[C@@H](NC(=O)c2cc(C4CC4)on2)C3)C(C)CN1` (stereo partly drawn) [compound 907, 5-cyclopropyl-N-((1R,3r,5S)-8-((2,5-dimethylpiperazin-1-yl)sulfonyl)-8-azabicyclo[3.2.1]octan-3-yl)isoxazole-3-carboxamide], the 50% inhibitory concentration (IC50) amounted to 17.7 nM in test [1] and 238 nM in test [2].
As for `C[C@H]1C[C@@H](NC(=O)c2cc(C3CC3)on2)CCN1S(=O)(=O)N1CCC(NCCN2CCOCC2)CC1` [compound 908, 5-cyclopropyl-N-((2S,4S)-2-methyl-1-((4-((2-morpholinoethyl)amino)piperidin-1-yl)sulfonyl)piperidin-4-yl)isoxazole-3-carboxamide], the IC50 in test [1] was 18.4 nM; in test [2], 253 nM.
As for `C[C@H]1C[C@@H](NC(=O)c2cc(C3CC3)on2)CCN1S(=O)(=O)[C@@H]1CCCNC1` [compound 910, 5-cyclopropyl-N-((2S,4S)-2-methyl-1-(((R)-piperidin-3-yl)sulfonyl)piperidin-4-yl)isoxazole-3-carboxamide], the IC50 in test [1] was found to be 19 nM; in test [2] it was 186 nM.
Consider `CC(C)c1cc(C(=O)N[C@H]2C[C@H]3CC[C@@H](C2)N3S(=O)(=O)N2CCC(N)CC2)no1` [compound 911, N-((1R,3r,5S)-8-((4-aminopiperidin-1-yl)sulfonyl)-8-azabicyclo[3.2.1]octan-3-yl)-5-isopropylisoxazole-3-carboxamide], for which the IC50 in test [1] was determined as 20.5 nM; in test [2] it was 144 nM.
For `O=C(N[C@H]1C[C@H]2CC[C@@H](C1)N2S(=O)(=O)N1CCC(NCCCN2CCOCC2)CC1)c1cc(C2CC2)on1` [compound 912, 5-cyclopropyl-N-((1R,3r,5S)-8-((4-((3-morpholinopropyl)amino)piperidin-1-yl)sulfonyl)-8-azabicyclo[3.2.1]octan-3-yl)isoxazole-3-carboxamide], in that order: 20.9 nM and 316 nM.
Regarding `C[C@H]1C[C@@H](NC(=O)c2cc(C3CC3)on2)CCN1S(=O)(=O)[C@H]1CCCNC1` [compound 913, 5-cyclopropyl-N-((2S,4S)-2-methyl-1-(((S)-piperidin-3-yl)sulfonyl)piperidin-4-yl)isoxazole-3-carboxamide], the IC50 in test [1] is 21.6 nM; in test [2] it was 255 nM.
In the case of `O=C(N[C@H]1C[C@H]2CC[C@@H](C1)N2S(=O)(=O)N1CC2CCC(C1)N2CCCC(F)(F)F)c1cc(C2CC2)on1` [compound 914, 5-cyclopropyl-N-((1R,3r,5S)-8-((8-(4,4,4-trifluorobutyl)-3,8-diazabicyclo[3.2.1]octan-3-yl)sulfonyl)-8-azabicyclo[3.2.1]octan-3-yl)isoxazole-3-carboxamide], the IC50 in test [1] is 22.9 nM; in test [2], 299 nM.
